Experimental data: patent US10286034B2, “Uses of bremelanotide in therapy for female sexual dysfunction” (Palatin Technologies, Inc., priority 2012, dated 2019)

Experiment: Subcutaneous trials in males: vomiting and tolerability
Format: in vivo, human
Details: intramuscular administration, males

Cc1nccn1CC1CCc2c(c3ccccc3n2C)C1=O (stereo not shown) [ondansetron, reference compound]
effect on bremelanotide-induced vomiting: Vomiting could be resolved
